US10766928B2, “Targeted conformationally-constrained kinked endosomal disrupting peptides” (priority 2012, dated 2020)
In brackets after ≈: the same amount, converted by molar mass. Where two headings read alike, the source gives them in different places. Non-standard residues stand in square brackets, D forms with d. Residues, ends and D or L forms follow the SMILES beside them. *: point of attachment. Cholesteryloxycarbonyl = CC(C)CCC[C@@H](C)[C@H]1CC[C@H]2[C@@H]3CC=C4C[C@@H](OC(=O)*)CC[C@]4(C)[C@H]3CC[C@]12C; PEG3 = NCCOCCOCCOCCC(=O)O; Pra = C#CC[C@H](N)C(=O)O; Aib = CC(C)(N)C(=O)O; βAla = NCCC(=O)O

Experiments:
[1] = tested on: endosomes of Jurkat lymphocytes; test: Endosome disruption in Jurkat lymphocytes: release of carboxyfluorescein from disulfide probe Compound 2, flow cytometry; details: for Efficacy (% of max. 1): % change in cellular fluorescence relative to maximal response of Compound 1 (100%); for Efficacy (% of 1): % of the effect of compound 1, calculated span of dose-response curve, ± standard deviation
In short: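 Human Jurkat cells treated with compounds plus disulfide probe Compound 2 (2.5 μM) for 14 h at 37 °C. Cytoplasmic release of pH-sensitive fluorophore Compound 3 quantified by flow cytometry. IC50 by non-linear regression; efficacy as % fluorescence change relative to Compound 1 maximum (100%).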

[2] = tested on: Jurkat lymphocytes
[3] = Thermodynamic solubility in PBS (pH 7.4); type: physicochemical
Text: Values in parentheses represent 95% confidence intervals. N.D., not determined.
Measurements represent duplicate or more replicates, with active peptides subjected to multiple replicates. ND: not determined. The peptide was non-toxic and soluble in cell culture medium at this concentration.

[4] = phosphate buffered saline, pH 7.4, Table 1, PBS pH 7.4, 24 hours at 22° C., ±S.D., read-out: Solubility (aq.)
[5] = read-out: Potency (EC50), Table 1, Jurkat lymphocytes, probe Compound 2 (2.5 μM), 14 hours, 95% confidence interval in neighbouring cell
[6] = read-out: Toxicity (IC50), Table 1, Jurkat lymphocytes, 48 h at 37° C.
[7] = read-out: Potency, Table 2, EC50 ± standard deviation, Jurkat lymphocytes, disulfide-linked fluorescent probe (2.5 μM), 14 h
[8] = read-out: Toxicity, Table 3, IC50, Jurkat, 48 h at 37° C., footnote a: non-toxic and soluble in cell culture medium at this concentration
[9] = phosphate buffered saline, pH 7.4, Table 3, PBS pH 7.4, 24 h at 22° C., read-out: Solubility

| SMILES | EC50 ([1]; 14 h) [µM] | IC50 ([2]; 48 h) [µM] | solubility thermodynamic at 24 h [3, 4] [µM] | Efficacy (% of max. 1) ([1]; Table 1, Jurkat, 14 hours) [%] | EC50 [1, 5] [µM] | Efficacy (% of 1) ([1]; Table 2, Jurkat, 14 h) [%] | EC50 [1, 7] [µM] | IC50 [2, 8] [µM] | solubility thermodynamic at 24 h [3, 9] [µM] | further results |
| --- | --- | --- | --- | --- | --- | --- | --- | --- | --- | --- |
| CC(C)CCC[C@@H](C)[C@H]1CC[C@H]2[C@@H]3CC=C4C[C@@H](OC(=O)NCCC(=O)NCCC(=O)N[C@@H](CCC(=O)O)C(=O)N[C@@H](CCC(=O)O)C(=O)NCCOCCOCCOCCC(=O)NCCOCCOCCOCCC(=O)NC(C)(C)C(=O)NC(C)(C)C(=O)NC(C)(C)C(=O)NC(C)(C)C(=O)N[C@@H](Cc5c[nH]c6ccccc56)C(=O)N[C@@H](Cc5c[nH]c6ccccc56)C(=O)N[C@@H](C)C(=O)N[C@@H](Cc5ccc(O)cc5)C(=O)N[C@@H](Cc5c[nH]c6ccccc56)C(=O)N5CCC[C@H]5C(=O)N5CCC[C@H]5C(=O)N[C@H](C(=O)N[C@@H](C)C(N)=O)C(C)C)CC[C@]4(C)[C@H]3CC[C@]12C [Compound 34, R″ = BEEOOUUUUWWAYWPPVA-CONH2] ({Cholesteryloxycarbonyl-βAla-βAla}-EE[PEG3][PEG3][Aib][Aib][Aib][Aib]WWAYWPPVA-NH2) | 0.1 | 17 | – | – | – | – | – | – | – | solubility at 24 h ([3]; phosphate buffered saline, Table 1, PBS pH 7.4, 24 hours at 22° C., ±S.D., read-out: Solubility (aq.)): 405 µM (≈ 1110 µg/mL) |
| C#CC[C@H](NC(=O)[C@H](CCC(=O)O)NC(=O)[C@H](CCC(=O)O)NC(=O)CCNC(=O)CCNC(=O)O[C@H]1CC[C@@]2(C)C(=CC[C@H]3[C@@H]4CC[C@H]([C@H](C)CCCC(C)C)[C@@]4(C)CC[C@@H]32)C1)C(=O)NCCOCCOCCOCCC(=O)NCCOCCOCCOCCC(=O)NC(C)(C)C(=O)NC(C)(C)C(=O)NC(C)(C)C(=O)NC(C)(C)C(=O)N[C@@H](Cc1c[nH]c2ccccc12)C(=O)N[C@@H](Cc1c[nH]c2ccccc12)C(=O)N[C@@H](C)C(=O)N[C@@H](Cc1ccc(O)cc1)C(=O)N[C@@H](Cc1c[nH]c2ccccc12)C(=O)N1CCC[C@H]1C(=O)N1CCC[C@H]1C(=O)N[C@H](C(=O)N[C@@H](C)C(N)=O)C(C)C [Compound 35, R″ = BEEZOOUUUUWWAYWPPVA-CONH2] ({Cholesteryloxycarbonyl-βAla-βAla}-EE[Pra][PEG3][PEG3][Aib][Aib][Aib][Aib]WWAYWPPVA-NH2) | 0.11 | 13 | 649 ± 11 (≈ 1840 µg/mL) | – | – | – | – | – | – | Difference in solubility relative to Compound 31 ([3]; PBS): greater than hundredfold |
| C#CC[C@H](NC(=O)[C@H](CCC(=O)O)NC(=O)[C@H](CCC(=O)O)NC(=O)CCNC(=O)CCNC(=O)O[C@H]1CC[C@@]2(C)C(=CC[C@H]3[C@@H]4CC[C@H]([C@H](C)CCCC(C)C)[C@@]4(C)CC[C@@H]32)C1)C(=O)NCCOCCOCCOCCC(=O)NCCOCCOCCOCCC(=O)NC(C)(C)C(=O)NC(C)(C)C(=O)NC(C)(C)C(=O)NC(C)(C)C(=O)N[C@@H](Cc1c[nH]c2ccccc12)C(=O)N[C@@H](Cc1c[nH]c2ccccc12)C(=O)N[C@@H](C)C(=O)N[C@@H](Cc1ccc(O)cc1)C(=O)N[C@@H](Cc1c[nH]c2ccccc12)C(=O)N1CCC[C@H]1C(=O)N1CCC[C@H]1C(=O)N[C@H](C(=O)N[C@H](C(N)=O)C(C)C)C(C)C [Compound 36, R″ = BEEZOOUUUUWWAYWPPVV-CONH2] ({Cholesteryloxycarbonyl-βAla-βAla}-EE[Pra][PEG3][PEG3][Aib][Aib][Aib][Aib]WWAYWPPVV-NH2) | 0.06 | 13 | 233 ± 21 (≈ 666 µg/mL) | – | – | – | – | – | – | – |
| C#CC[C@H](NC(=O)[C@H](CCC(=O)O)NC(=O)[C@H](CCC(=O)O)NC(=O)CCNC(=O)CCNC(=O)O[C@H]1CC[C@@]2(C)C(=CC[C@H]3[C@@H]4CC[C@H]([C@H](C)CCCC(C)C)[C@@]4(C)CC[C@@H]32)C1)C(=O)NCCOCCOCCOCCC(=O)NCCOCCOCCOCCC(=O)NC(C)(C)C(=O)NC(C)(C)C(=O)NC(C)(C)C(=O)NC(C)(C)C(=O)N[C@@H](Cc1c[nH]c2ccccc12)C(=O)N[C@@H](Cc1c[nH]c2ccccc12)C(=O)N[C@@H](C)C(=O)N[C@@H](Cc1ccc(O)cc1)C(=O)N[C@@H](Cc1ccc(O)cc1)C(=O)N1CCC[C@H]1C(=O)N1CCC[C@H]1C(=O)N[C@H](C(=O)N[C@H](C(N)=O)C(C)C)C(C)C [Compound 37, R″ = BEEZOOUUUUWWAYYPPVV-CONH2] ({Cholesteryloxycarbonyl-βAla-βAla}-EE[Pra][PEG3][PEG3][Aib][Aib][Aib][Aib]WWAYYPPVV-NH2) | 0.04 | 3 | 348 ± 13 (≈ 986 µg/mL) | – | – | – | – | – | – | IC50 ([1]; 14 h): 0.04 µM |
| C#CC[C@H](NC(=O)[C@H](CCC(=O)O)NC(=O)[C@H](CCC(=O)O)NC(=O)CCNC(=O)CCNC(=O)O[C@H]1CC[C@@]2(C)C(=CC[C@H]3[C@@H]4CC[C@H]([C@H](C)CCCC(C)C)[C@@]4(C)CC[C@@H]32)C1)C(=O)NCCOCCOCCOCCC(=O)NCCOCCOCCOCCC(=O)NC(C)(C)C(=O)NC(C)(C)C(=O)NC(C)(C)C(=O)NC(C)(C)C(=O)N[C@@H](Cc1ccc(O)cc1)C(=O)N[C@@H](Cc1ccc(O)cc1)C(=O)N[C@@H](C)C(=O)N[C@@H](Cc1ccc(O)cc1)C(=O)N[C@@H](Cc1ccc(O)cc1)C(=O)N1CCC[C@H]1C(=O)N1CCC[C@H]1C(=O)N[C@H](C(=O)N[C@H](C(N)=O)C(C)C)C(C)C [Compound 38, R″ = BEEZOOUUUUYYAYYPPVV-CONH2] ({Cholesteryloxycarbonyl-βAla-βAla}-EE[Pra][PEG3][PEG3][Aib][Aib][Aib][Aib]YYAYYPPVV-NH2) | 0.04 | 8 | 1060 ± 19 (≈ 2950 µg/mL) | – | – | – | – | – | – | IC50 ([1]; 14 h): 0.04 µM; Selectivity for disruption of endosomes over toxicity to cells in culture ([1]; Jurkat, toxicity after 48 hours): greater than hundredfold |
| CC(=O)NC(C)(C)C(=O)NC(C)(C)C(=O)NC(C)(C)C(=O)N[C@@H](Cc1c[nH]c2ccccc12)C(=O)N[C@@H](Cc1c[nH]c2ccccc12)C(=O)N[C@@H](C)C(=O)N[C@@H](Cc1ccc(O)cc1)C(=O)N[C@@H](Cc1c[nH]c2ccccc12)C(=O)N1CCC[C@H]1C(=O)N1CCC[C@H]1C(=O)N[C@H](C(=O)N[C@@H](C)C(N)=O)C(C)C [Compound 41] (Ac-[Aib][Aib][Aib]WWAYWPPVA-NH2) | – | – | 24 ± 3 (≈ 35.3 µg/mL) | 53 | 5.9 | – | – | – | – | Endosome disruption activity (in words) ([1]; Jurkat endosome disruption assay): substantial endosome disruption activity; IC50 [2, 6]: > 100 µM |
| CC(=O)NC(C)(C)C(=O)NC(C)(C)C(=O)NC(C)(C)C(=O)NC(C)(C)C(=O)N[C@@H](Cc1c[nH]c2ccccc12)C(=O)N[C@@H](Cc1c[nH]c2ccccc12)C(=O)N[C@@H](C)C(=O)N[C@@H](Cc1ccc(O)cc1)C(=O)N[C@@H](Cc1c[nH]c2ccccc12)C(=O)N1CCC[C@H]1C(=O)N1CCC[C@H]1C(=O)N[C@H](C(=O)N[C@@H](C)C(N)=O)C(C)C [Compound 42] (Ac-[Aib][Aib][Aib][Aib]WWAYWPPVA-NH2) | – | – | 11 ± 1 (≈ 17.1 µg/mL) | 85 | 5.3 | – | – | – | – | IC50 [2, 6]: > 100 µM |
| CC(C)[C@H](NC(=O)[C@@H](NC(=O)[C@@H]1CCCN1C(=O)[C@@H]1CCCN1C(=O)[C@H](Cc1c[nH]c2ccccc12)NC(=O)[C@H](Cc1ccc(O)cc1)NC(=O)[C@H](C)NC(=O)[C@H](Cc1c[nH]c2ccccc12)NC(=O)[C@H](Cc1c[nH]c2ccccc12)NC(=O)C(C)(C)NC(=O)C(C)(C)NC(=O)C(C)(C)NC(=O)C(C)(C)N)C(C)C)C(N)=O [Compound 44] (H-[Aib][Aib][Aib][Aib]WWAYWPPVV-NH2) | – | – | 22 ± 1 (≈ 33.9 µg/mL) | 97 | 5.2 | 98 ± 2 | 5 ± 1 | > 16 | 22 ± 1 (≈ 33.9 µg/mL) | – |
| CC(C)[C@H](NC(=O)[C@@H](NC(=O)[C@@H]1CCCN1C(=O)[C@@H]1CCCN1C(=O)[C@H](Cc1c[nH]c2ccccc12)NC(=O)[C@H](Cc1c[nH]c2ccccc12)NC(=O)[C@H](C)NC(=O)[C@H](Cc1c[nH]c2ccccc12)NC(=O)[C@H](Cc1ccc(O)cc1)NC(=O)C(C)(C)NC(=O)C(C)(C)NC(=O)C(C)(C)NC(=O)C(C)(C)N)C(C)C)C(N)=O [Compound 52] (H-[Aib][Aib][Aib][Aib]YWAWWPPVV-NH2) | – | – | – | 87 | 1.9 | 105 ± 19 | 3.2 ± 1.4 | > 16 | 21 ± 1 (≈ 32.4 µg/mL) | – |
| CC(C)[C@H](NC(=O)[C@@H](NC(=O)[C@@H]1CCCN1C(=O)[C@@H]1CCCN1C(=O)[C@H](Cc1c[nH]c2ccccc12)NC(=O)[C@H](Cc1c[nH]c2ccccc12)NC(=O)[C@H](C)NC(=O)[C@H](Cc1ccc(O)cc1)NC(=O)[C@H](Cc1c[nH]c2ccccc12)NC(=O)C(C)(C)NC(=O)C(C)(C)NC(=O)C(C)(C)NC(=O)C(C)(C)N)C(C)C)C(N)=O [Compound 53] (H-[Aib][Aib][Aib][Aib]WYAWWPPVV-NH2) | – | – | – | 104 | 7.1 | 96 ± 12 | 6.7 ± 0.8 | > 16 | 29 ± 3 (≈ 44.7 µg/mL) | – |
| CC(C)[C@H](NC(=O)[C@@H](NC(=O)[C@@H]1CCCN1C(=O)[C@@H]1CCCN1C(=O)[C@H](Cc1ccc(O)cc1)NC(=O)[C@H](Cc1c[nH]c2ccccc12)NC(=O)[C@H](C)NC(=O)[C@H](Cc1c[nH]c2ccccc12)NC(=O)[C@H](Cc1c[nH]c2ccccc12)NC(=O)C(C)(C)NC(=O)C(C)(C)NC(=O)C(C)(C)NC(=O)C(C)(C)N)C(C)C)C(N)=O [Compound 54] (H-[Aib][Aib][Aib][Aib]WWAWYPPVV-NH2) | – | – | – | 100 | 3.8 | 101 ± 2 | 5.4 ± 1.6 | > 16 | 8 ± 1 (≈ 12.3 µg/mL) | – |
